Data from US20170189445A1, “XENON ASSOCIATED WITH AN NMDA RECEPTOR ANTAGONIST FOR CONTROLLING TUMOR PROLIFERATION IN THE CENTRAL NERVOUS SYSTEM” (L'Air Liquide, Société Anonyme pour I'Etude et …, priority 2014, published 2017).

Assays:
[1] = test system: glial cells of astrocyte type and/or precursors thereof in the presence of neuronal cells; assay: Cell proliferation by tritiated thymidine incorporation in neuron-glia mixed (mesencephalon) cultures; assay type: cell-based, rat; set-up: key to Inhibition of proliferation: an absence of response is represented by a “−” sign, synonymous with non-efficacy with respect to cell proliferation; +: a favorable response, synonymous with inhibition of the proliferation of glial cells of astrocyte type; ++: a favorable response, synonymous with inhibition of the proliferation of glial cells of astrocyte type; +++: a favorable response, synonymous with inhibition of the proliferation of glial cells of astrocyte type; ++++=absence of proliferation
Method: Cultures are prepared from mesencephalon of rat embryos taken from female Wistar rats, on day 15.5 of gestation. The use of the mesencephalon cultures comprises obtaining a homogeneous cell suspension by mechanical dissociation, i.e. non-enzymatic dissociation, of the embryonic tissue, using Leibovitz L15 medium (Sigma Aldrich). Aliquots of this suspension are added to Nunc 48-well multiwell plates, which have been precoated with a thin layer of polyethyleneimine (1 mg/ml, borate buffer, pH 8.3) so as to enable adhesion of the neuronal cells (cf. Toulorge et al., Faseb J, 2011). The seeding density is between approximately 80 000 and 100 000 cells/culture well. The mesencephalon cultures are maintained in MEM culture medium, containing 1 g/l of glucose, 2 mM of L-glutamine, 1 mM of sodium pyruvate, non-essential amino acids and a penicillin/streptomycin cocktail. During the first week of culture, this medium also contains 10% of fetal calf serum (FCS, Biowest) and 10% of horse serum (HS, Sigma Aldrich), but from the second week, the concentrations of the two sera are reduced (Gao et al., J Neurosci, 2002). Up to the time when the effects of the gases of interest are evaluated, the cultures are placed in a conventional enclosure thermostatically controlled at 37° C., in which the CO2 is maintained at 5% by volume and wherein the atmosphere is saturated with water. The glial proliferation process occurs as soon as the cells are placed in culture. It is analyzed during the second week in vitro when the serum supplementation is reduced to 2% or in some cases to 0.1%. After reduction of the FCS and HS concentrations on D7, the NMDA receptor blocker, memantine, is added to the cultures before placing them under a controlled gaseous atmosphere. Once the pharmacological treatments have been carried out, the multiwell plates containing the cells in culture and the plate used for humidifying the internal compartment of the chamber are placed on a metal base which receives the Plexiglas incubation chamber. The two parts (base and Plexiglas chamber) are butt-joined together by screwing. A gas mixture of interest comprising (% by volume): 20% of O2, 5% of CO2 and 75% of gas tested is then injected into the incubation chamber, with open inlet and outlet valves, while at the same time controlling the output flow rate by means of a flow meter. The gases tested are nitrogen and xenon. The reference output flow rate, set for air at 10 liters/min, is corrected according to the density of the mixture used. When the CO2 measurement reaches 5% at the outlet, the injection of the gas mixture is stopped and the chamber is made totally airtight by closing the inlet and outlet valves. The exposure chamber is then placed in an enclosure at 37° C. for the 7 days of the experimental protocol. On D14, after the […] been broken by opening the inlet and outlet valves and unscrewing the incubation chamber from its base, the cultures are subjected to the tritiated-thymidine proliferation test according to the protocol described in example 1, using as a basis the technique described by Rousseau and colleagues (Mol. Pharmacol., 2013). […] Some experiments were also carried out by reducing the concentrations of the 2 types of serum to 0.1%, while maintaining the cells under a nitrogen-enriched or xenon-enriched atmosphere. The cultures are then recovered for a cell proliferation measurement using tritiated thymidine. […]

[2] = test system: glial cells of astrocyte type and/or precursors thereof; assay: Cell proliferation by tritiated thymidine accumulation in astrocyte-enriched cultures (FCS mitogens); assay type: cell-based, rat; set-up: key to Reduction in proliferation: an absence of response is represented by a “−” sign, synonymous with non-efficacy with respect to cell proliferation; +: a favorable response, synonymous with inhibition of the proliferation of glial cells of astrocyte type; ++: a favorable response, synonymous with inhibition of the proliferation of glial cells of astrocyte type; +++: a favorable response, synonymous with inhibition of the proliferation of glial cells of astrocyte type; ++++=absence of proliferation
Method: Cultures are prepared from total brain of embryos, taken from gestating Wistar female rats on day 15.5 of gestation. The method for producing the cultures enriched with astrocytes (cells immunopositive for glial fibrillary acidic protein or GFAP) comprises obtaining a homogeneous cell suspension of the entire embryonic anterior brain by mechanical dissociation, i.e. non-enzymatic dissociation, using Leibovitz L15 medium (Sigma Aldrich). […] The medium used is Minimum Essential Medium (MEM), containing 10% of fetal calf serum (FCS, Biowest) and 10% of horse serum (HS, Sigma Aldrich), 1 g/l of glucose, 2 mM of L-glutamine, 1 mM of sodium pyruvate, non-essential amino acids, and a penicillin/streptomycin cocktail. When confluence is reached (i.e. after 7-10 days of culture), the adherent cells (>90% of astrocytes) are placed in PBS, then detached by tapping the flasks. […] The astrocytes are then cultured in 48-well multiwell plates (Nunc). Approximately 30 000 cells are applied per culture well. The cells are placed in the presence of the same medium as previously, but with a serum supplementation, reduced to 2%. No change of culture medium is carried out throughout the culture period. The proliferation is triggered and maintained by the presence of FCS in the culture medium. The NMDA receptor blocker, memantine (RD Systems), is added to the cultures just before exposure to the xenon. Dibutyryl cyclic AMP (dbcAMP), a lipophilic form of cAMP used as a reference anti-proliferative molecule (Mourlevat et al., Mol Pharmacol, 2003), is added at the same time as the memantine. Once the pharmacological treatments have been carried out, the multiwell dish plates containing the cells in culture and the plate used to humidify the internal compartment of the chamber are placed on a metal base which receives the Plexiglas incubation chamber. The two parts (base and Plexiglas chamber) are butt-joined together by screwing. A gas mixture of interest comprising (% by volume): 20% of O2, 5% of CO2 and 75% of the gas tested is then injected into the incubation chamber, with open inlet and outlet valves, while at the same time controlling the output flow rate by means of a flow meter. The gases tested are nitrogen and xenon. The reference output flow rate, set for air at 10 liters/min, is corrected according to the density of the mixture used. When the CO2 measurement reaches 5% at the outlet, the injection of the gas mixture is stopped and the chamber is made totally airtight by closing the inlet and outlet valves. The exposure chamber is then placed in an enclosure at 37° C. throughout the experimental protocol. After the […] been broken by opening the inlet and outlet valves and unscrewing the chamber from its base, the cultures are placed in the presence of PBS containing 5 mM of glucose and incubated for 2 h with tritiated thymidine (Perkin, 70-90 Ci/mmol; 0.5 μCi/well) in order to analyze the cell proliferation according to a method previously described by Rousseau and colleagues (Mol Pharmacol, 2013). […] These cultures were maintained, as soon as they were placed in culture and up to D3 in vitro, in an atmosphere containing 75% of nitrogen (N2 75) or 75% of xenon (Xe 75), in the presence or absence of memantine (MEM), […] analog of cAMP, dibutyryl-cAMP, used as reference anti-proliferative molecule. At the end of the treatments, the cultures are recovered for a cell proliferation measurement, using tritiated thymidine incorporation as evaluation index. The results are expressed in % (±SEM, n=6) of the mean values of the cultures maintained under 75% of nitrogen (control condition).

For `CC12CC3CC(C)(C1)CC(N)(C3)C2` [Memantine, memantine], the Inhibition of proliferation ([1]; 10 μM, 75% N2, sera at 2%, D7-D14) was “−”, the “impact on the proliferation” value ([1]; memantine applied under nitrogen) was “no impact on the proliferation” and the anti-proliferative effect ([2]; 30 pM (so in the source), nitrogen-enriched atmosphere) was −39.3%. The anti-proliferative effect ([2]; 30 pM (so in the source), xenon-enriched atmosphere) was −75.2%, the Reduction in proliferation ([2]; 1 μM, 75% N2, D0-D3) was “−” and the Reduction in proliferation ([2]; 1 μM, 75% Xe, D0-D3) was “−”. The Reduction in proliferation ([2]; 3 μM, 75% N2, D0-D3) was “−”, the Reduction in proliferation ([2]; 3 μM, 75% Xe, D0-D3) was “−” and the Reduction in proliferation ([2]; 10 μM, 75% N2, D0-D3) was “−”. For the same molecule, the Reduction in proliferation ([2]; 10 μM, 75% Xe, D0-D3) was “++”, the anti-proliferative effect ([2]; 10 μM, xenon-enriched atmosphere, vs cultures under 75% nitrogen) was −42.5% and the Reduction in proliferation ([2]; 30 μM, 75% N2, D0-D3) was “++”. The Reduction in proliferation ([2]; 30 μM, 75% Xe, D0-D3) was “+++” and the “anti-proliferative effect” value ([2]; nitrogen-enriched atmosphere, up to 10 μM) was “no anti-proliferative effect”.

In the case of `CCCC(=O)Nc1ncnc2c1ncn2[C@@H]1O[C@@H]2COP(=O)(O)O[C@H]2[C@H]1OC(=O)CCC` [dbcAMP, Dibutyryl cyclic AMP], the Reduction in proliferation ([2]; 1 mM, 75% N2, D0-D3) is reported as “++”, the Reduction in proliferation ([2]; 1 mM, 75% Xe, D0-D3) is reported as “++” and the “proliferation in the presence of serum mitogens” value ([2]; atmosphere containing 75 vol % of nitrogen) is reported as “significantly reduced”.

`[Xe]` [Xe, xenon] was tested, and the Inhibition of proliferation ([1]; 75% Xe, sera at 0.1%, D7-D14) was “+++”, the Inhibition of proliferation ([1]; 75% Xe, sera at 2%, D7-D14 (7 days)) was “−” and the “impact on the proliferation” value ([1]; xenon-enriched atmosphere, no memantine) was “no impact on the proliferation”. For the same molecule, the Reduction in proliferation ([2]; 75% Xe (20% O2 + 5% CO2), no drug, D0-D3 (3 days)) was “−” and the “anti-proliferative effect” value ([2]; xenon replaces nitrogen (75 vol %), no drug) was “no significant anti-proliferative effect”.
